Data published in US5434182A (priority 1993, dated 1995).
Where “and” joins values, the source holds several entries; their conditions need not be identical. Equal values may be shown once. Entries after “also recorded” stand apart in the source; their conditions may differ. Read-outs that look alike come from different tables or passages of the source.

Legend:
Group B streptococcus = test: Inactivation of bacteria by monoglycerides, Group B streptococcus; assay type: cell-based; conditions: 2 mg/ml, read-out: Reduction of bacterial concentration, Group B streptococcus
HSV-1 [1] = assay type: cell-based, herpes simplex virus type 1 strain MacIntyre
VSV [2] = test: microbe, parasite or virus in culture; assay type: cell-based, vesicular stomatitis virus
VSV [3] = test: microbe, parasite or virus in culture; assay type: cell-based, vesicular stomatitis virus strain Indiana; conditions: for minimal effective concentration: read-out: Lowest concentration causing ≥3.0 log10 reduction in virus titer
HSV-1 [4] = test: microbe, parasite or virus in culture; assay type: cell-based, herpes simplex virus type 1 strain MacIntyre; conditions: Human alphaherpesvirus 1, 0.5 h; 0.25 mg/ml, 37° C., 30 min; read-out: Reduction of virus titer, HSV-1
sperm = test: Spermicidal test: motility and viability of sperm in semen; assay type: cell-based; conditions: for viability at 100000 µM / viability at 150000 µM: Homo sapiens, Sperm
Protocol: The fatty acids and derivatives thereof disclosed here are useful as spermicides and in the treatment of sexually transmitted diseases. […] Four samples tested were comprised as follows:
Five test tubes were prepared, one for each of Samples A to D and a Control. An amount of 0.5 ml of active semen was added to each test tube. Each of Samples A and B and the Control was at 37° C., and Samples C and D were at room temperature. The percentages of motility and viability were measured from 15 seconds to 5 minutes in the case of each of Samples A to D and from 15 seconds to 2 hours for the Control.

Total White Blood Cells = test: Stability of white blood cells in whole human blood to added lipid; assay type: cell-based; design: unit not given here; conditions: 15 mM, control 6.4
Excerpt: Further testing has shown the effect of monoglyceride esters and ether on the total white blood cell concentration in whole human blood.

VSV [5] = test: microbe, parasite or virus in culture; assay type: cell-based, vesicular stomatitis virus; conditions: for log reduction at 15000 µM: Vesicular stomatitis virus
enveloped viruses = assay type: cell-based
VSV [6] = test: microbe, parasite or virus in culture; assay type: cell-based, vesicular stomatitis virus strain Indiana; conditions: Vesicular stomatitis virus, 0.5 h; for minimal effective concentration: read-out: lowest concentration which reduced the VSV titer by ≥4.0 log10 units
HSV-1 [7] = test: microbe, parasite or virus in culture; assay type: cell-based, herpes simplex virus type 1 strain MacIntyre; conditions: Human alphaherpesvirus 1, 0.5 h, 37° C., 30 min, read-out: Reduction of virus titer, HSV-1
Visna virus = test: microbe, parasite or virus in culture; assay type: cell-based, Visna virus strain K796; conditions: Visna-maedi virus, 0.5 h, 37° C., 30 min, read-out: Reduction of virus titer, VV (visna virus)
poliovirus = assay type: cell-based, Poliovirus type 1 strain Chat; conditions: 8 mg/ml, 37° C., 30 min; control 10^4.7 TCID50
sheep fibroblasts = test: Disintegration of cell membranes, sheep fibroblasts (scanning electron microscopy); conditions: 1 mg/ml, 37° C., 30 min
Vero cells = test: Disintegration of cell membranes, Vero cells (scanning electron microscopy); conditions: 1 mg/ml, 37° C., 30 min
VSV [8] = test: microbe, parasite or virus in culture; assay type: cell-based, vesicular stomatitis virus strain Indiana; conditions: for effect on viral particles (electron micrographs): 37° C., 30 min
[9] = Vesicular stomatitis virus, 0.5 h
[10] = Vesicular stomatitis virus, 0.5 h, read-out: Reduction of virus titer, VSV
[11] = read-out: Reduction of virus titer, VSV

CCCCCCCCCCCC(=O)OCC(O)CO (racemic) [Monolaurin (12:0), 1-Monolauroyl-rac-glycerol]
log reduction at 2000 µg/mL (Group B streptococcus): 4.5
Reduction of HSV-L titer (HSV-1 [1]; incubation 0.5 min): ≥ 4.0
Reduction of HSV-L titer (HSV-1 [1]; incubation 1 min): ≥ 4.0
Reduction of HSV-L titer (HSV-1 [1]; incubation 5 min): ≥ 4.0
Reduction of HSV-L titer (HSV-1 [1]; incubation 10 min): ≥ 4.0
Reduction of HSV-L titer (HSV-1 [1]; incubation 30 min): ≥ 4.0
dependence of viral killing on sodium taurocholate (VSV [2]; VSV, human serum): only takes place when sodium taurocholate is present
log reduction at 3000 µM (VSV [2]; Vesicular stomatitis virus, read-out: Reduction in VSV Titer, 3 mM, 10 mM sodium taurocholate, human serum): ≥ 5
log reduction at 3000 µM (VSV [2]; Vesicular stomatitis virus, read-out: Reduction in VSV Titer, 3 mM, no sodium taurocholate, human serum): 0
log reduction at 4000 µM (VSV [2]; Vesicular stomatitis virus, read-out: Reduction in VSV Titer, 4 mM, 10 mM sodium taurocholate, human serum): ≥ 5
log reduction at 4000 µM (VSV [2]; Vesicular stomatitis virus, read-out: Reduction in VSV Titer, 4 mM, no sodium taurocholate, human serum): 0
log reduction at 5000 µM (VSV [2]; Vesicular stomatitis virus, read-out: Reduction in VSV Titer, 5 mM, 10 mM sodium taurocholate, human serum): ≥ 5
log reduction at 5000 µM (VSV [2]; Vesicular stomatitis virus, read-out: Reduction in VSV Titer, 5 mM, no sodium taurocholate, human serum): 0
log reduction at 7500 µM (VSV [2]; Vesicular stomatitis virus, read-out: Reduction in VSV Titer, 7.5 mM, 10 mM sodium taurocholate, human serum (Table 18)): ≥ 5
log reduction at 15000 µM (VSV [2]; Vesicular stomatitis virus, read-out: Reduction in VSV Titer, 15 mM, 10 mM sodium taurocholate, human serum): ≥ 5
concentration as low as which kills VSV (VSV [2]; in the presence of 10 mM sodium taurocholate): 3 mM
minimal effective concentration (VSV [3]; [9]): 250 µg/mL and 900 µM
log reduction at 250 µg/mL (VSV [3]; [10]): ≥ 4
active concentration relative to corresponding free acids (VSV [3]; monoglyceride vs free acid): ten times lower
log reduction at 250 µg/mL (HSV-1 [4]): ≥ 3.7

CCCCCCCCOC[C@@H](O)CO [1-O-Octyl-sn-glycerol, 1-O-octyl-sn-glycerol]
% mot. (sperm; 100 mM in semen, 15 sec., Sample B 37° C., Sample D room temperature): 0%
% mot. (sperm; 100 mM in semen, 30 sec., Sample B 37° C., Sample D room temperature): 0%
% mot. (sperm; 100 mM in semen, 1 min., Sample B 37° C., Sample D room temperature): 0%
% mot. (sperm; 100 mM in semen, 2 min., Sample B 37° C., Sample D room temperature): 0%
% mot. (sperm; 100 mM in semen, 3 min., Sample B 37° C., Sample D room temperature): 0%
% mot. (sperm; 100 mM in semen, 5 min., Sample B 37° C., Sample D room temperature): 0%
% mot. (sperm; 150 mM in semen, 15 sec., Sample A 37° C., Sample C room temperature): 0%
% mot. (sperm; 150 mM in semen, 30 sec., Sample A 37° C., Sample C room temperature): 0%
% mot. (sperm; 150 mM in semen, 1 min., Sample A 37° C., Sample C room temperature): 0%
% mot. (sperm; 150 mM in semen, 2 min., Sample A 37° C., Sample C room temperature): 0%
% mot. (sperm; 150 mM in semen, 3 min., Sample A 37° C., Sample C room temperature): 0%
% mot. (sperm; 150 mM in semen, 5 min., Sample A 37° C., Sample C room temperature): 0%
time within which 0% viability was effected (sperm; A, C 150 mM, B 100 mM in semen): ≤ 3 min
time within which sperm cells were rendered immobile (sperm; A, C 150 mM, B 100 mM in semen): ≤ 15 s
coating of sperm (sperm; A, C 150 mM, B, D 100 mM in semen, 30 minutes): coated the sperm effectively
viability at 100000 µM (sperm; 0.05 h, 100 mM in semen, 3 min., Sample B 37° C.): 0%
viability at 150000 µM (sperm; 0.05 h, 150 mM in semen, 3 min., Sample A 37° C., Sample C room temperature): 0%
viability at 100000 µM (sperm; 5 min, 100 mM in semen, Sample B 37° C., Sample D room temperature): 0%
viability at 150000 µM (sperm; 5 min, 150 mM in semen, Sample A 37° C., Sample C room temperature): 0%
Total White Blood Cells (Total White Blood Cells): 0.6
Reduction in VSV titer (VSV [5]; 5 mM, with 10 mM sodium taurocholate, human plasma, 37° 30 min): ≥ 4.0 Log10
log reduction at 15000 µM (VSV [5]; 2.5 min, read-out: Reduction in VSV Titer, 15 mM, 2.5 min, 37°, human plasma): 0
log reduction at 15000 µM (VSV [5]; 5 min, read-out: Reduction in VSV Titer, 15 mM, 5 min, 37°, human plasma): ≥ 4
log reduction at 15000 µM (VSV [5]; 10 min, read-out: Reduction in VSV Titer, 15 mM, 10 min, 37°, human plasma): ≥ 4
log reduction at 15000 µM (VSV [5]; 0.25 h, read-out: Reduction in VSV Titer, 15 mM, 15 min, 37°, human plasma): ≥ 4
log reduction at 15000 µM (VSV [5]; 0.5 h, read-out: Reduction in VSV Titer, 15 mM, 30 min, 37°, human plasma): ≥ 4
log reduction at 15000 µM (VSV [5]; 0.5 h, read-out: Reduction in VSV Titer, 15 mM, no sodium taurocholate, human plasma, 37° 30 min): ≥ 4
antiviral activity of MG ethers relative to esters, in words (VSV [5]; human plasma, listed as 8 carbon MG ether): just as effective as the naturally occurring esters; also recorded: somewhat more antiviral than the 8 carbon ester

CCCCCCCCCCCC(=O)O [Lauric (12:0), Lauric]
antiviral activity in words (enveloped viruses): showed activity
log reduction at 2000 µg/mL (VSV [6]; [11]): ≥ 4
minimal effective concentration (VSV [6]): 2000 µg/mL and 10000 µM
log reduction at 2000 µg/mL (HSV-1 [7]; 2 mg/ml): ≥ 4
log reduction at 2000 µg/mL (Visna virus; 2 mg/ml): ≥ 3.2
reduction of poliovirus titer (poliovirus): did not cause a significant reduction of virus titer

CCCCC/C=C\C/C=C\CCCCCCCC(=O)O [Linoleic (18:2), linoleic acid]
effect on cell membranes (sheep fibroblasts): the cell membranes were partly or completely disintegrated
effect on cell membranes (Vero cells): the cell membranes were partly or completely disintegrated
effect on viral particles (electron micrographs) (VSV [8]; 0.5 mg/ml): leakage of viral envelopes was produced
effect on viral particles (electron micrographs) (VSV [8]; 1 mg/ml): particle disintegration
log reduction at 500 µg/mL (VSV [8]; Vesicular stomatitis virus, 0.5 h, read-out: reduction in virus titer, 0.5 mg/ml, samples used for electron microscopy): 1
log reduction at 1000 µg/mL (VSV [8]; Vesicular stomatitis virus, 0.5 h, read-out: reduction in virus titer, 1 mg/ml, samples used for electron microscopy): ≥ 3
log reduction at 1000 µg/mL (VSV [6]; [11]): ≥ 4
minimal effective concentration (VSV [6]): 1000 µg/mL and 3500 µM
log reduction at 1000 µg/mL (HSV-1 [7]; 1 mg/ml): ≥ 4
log reduction at 1000 µg/mL (Visna virus; 1 mg/ml): ≥ 3.2
reduction of poliovirus titer (poliovirus): did not cause a significant reduction of virus titer

CCCCC/C=C\C/C=C\CCCCCCCC(=O)OC[C@@H](O)CO [Monolinolein (18:2), Monolinolein]
log reduction at 2000 µg/mL (Group B streptococcus): 4.5
minimal effective concentration (VSV [3]; [9]): 250 µg/mL and 700 µM
log reduction at 250 µg/mL (VSV [3]; [10]): ≥ 4
concentration relative to monocaprin for same reduction in viral titer (VSV [3]; maintenance medium, millimolar): one-third the concentration

CCCCCCCCCCCCCC(=O)OCC(O)CO (stereo not drawn) [Monomyristin (14:0), Monomyristin]
minimal effective concentration (VSV [3]; [9]): 2000 µg/mL and 13000 µM
log reduction at 2000 µg/mL (VSV [3]; [10]): 3
antiviral activity in words (enveloped viruses): consistently less active

CCCCCCCCCCCCCC(=O)O [Myristic (14:0), Myristic]
antiviral activity in words (enveloped viruses): showed activity
log reduction at 4000 µg/mL (VSV [6]; [11]): ≥ 4
minimal effective concentration (VSV [6]): 4000 µg/mL and 16000 µM
log reduction at 4000 µg/mL (HSV-1 [7]; 4 mg/ml): ≥ 4
log reduction at 4000 µg/mL (Visna virus; 4 mg/ml): 1.7
reduction of poliovirus titer (poliovirus): did not cause a significant reduction of virus titer
